From paper PMC7867085, “In Vitro and In Vivo Antitumor Activity of Indolo[2,3-b] Quinolines, Natural Product Analogs from Neocryptolepine Alkaloid” (Molecules, 2021)

Experiments:
[1] = test system: splenic lymphocytes of EAC bearing mice; assay: Splenic lymphocyte count in EAC bearing mice; assay type: in vivo, Swiss female albino mice; conditions: 100 mg/kg SC for 5 days
Procedure: This reduction is reconfirming the reported fact that tumor causes massive depletion in immune cell numbers. Table 7 shown the reduced splenic lymphocyte results were a reaffirmation that cancer disabled normal lymphocyte development. The effective dose of indoloquinoline analogs, given throughout this study; 100 mg/kg for 5 constitutive days subcutaneously, reported an increase in the spleen cell number providing evidence that they protect the lymphoid organ of mice with tumor as illustrated in (Table 7).
(§1) Under sterile conditions, the spleens were eliminated, and the single cell suspension was made in RPMI 1640 medium. Splenic lymphocytes were purified as described earlier. Viable splenic lymphocytes were counted in a hemocytometer by trypan blue exclusion test and used for further analysis.
(§2) During the study, female Swiss albino mice (normal, treated, and untreated) were anesthetized. Under sterile conditions, after scattering 70% alcohol on the abdominal region, the spleen was removed and then injected with a minor amount of PBS. Spleen was pressed across the fine mesh of the tissue grinder. After centrifuging the produced cell suspension at 1000 rpm for 5 min, the supernatant was discarded, and the cells were washed at room temperature by centrifugation in PBS twice. Trypan blue extrusion method was used to evaluate cell viability, and a phase-contrast microscope was used for cell counting. The experiment was done in tripartite.

[2] = test system: normal mice (liver homogenate); assay: Lipid peroxidation and antioxidant enzymes in liver homogenate of normal mice; assay type: in vivo, Swiss female albino mice; conditions: 100 mg/kg SC for 5 days
From the text: Measuring antioxidant enzyme levels and lipid peroxidation was utilized to evaluate the pharmacological effect of indoloquinoline derivatives. The study group was divided into two subgroups, normal mice and tumor-bearing mice. Each subgroup is further subdivided into two groups, one group received indoloquinoline derivatives, and the other group was marked as a placebo group.
The eradicated liver was double washed first, with ice-cold normal saline then, with cold 0.15 mol/L Tris-HCl buffer (pH 7.4). The clean organ was dried and weighed, and used to prepare a 10% w/v homogenate in 0.15 mol/L Tris-HCl buffer. A portion of the prepared homogenate was centrifuged at 1500 rpm for 15 min at 4 °C [47] and used for estimating lipid peroxidation, SOD [48] and CAT [49] analysis was carried out using the supernatant.

[3] = test system: EAC-induced solid tumor; assay: Antitumor activity: reduction in tumor volume of EAC-induced solid tumor; assay type: in vivo, Swiss female albino mice; conditions: day 12 (last day of treatment), 100 mg/kg SC daily for five consecutive days
Procedure: The aim of this study is to characterize indoloquinoline analogs 6a–d curative ability and antineoplastic activity on solid-form of Ehrlich tumors. Tumor volume is a potential biomarker for Ehrlich tumor development. The induction of solid tumor in Swiss female mice performed by inserting 0.2 mL of EAC cells (2 × 10^6 cell/mL) subcutaneously (SC) between thighs of the lower limb. When the tumor volume reached 15–20 mm^3 (Seven days after tumor induction), the mice were randomly divided into 6 groups (n = 10), five groups were injected subcutaneously with thalidomide and indoloquinoline analogs 6a–d (100 mg/kg) daily for five consecutive days, the sixth group (positive control group) were given DMSO/saline (0.3/0.7). The 8th day is considered the zero days of treatment. The tumor volume was daily measured with a vernier caliper for four days stated from day eight.
Thalidomide and indoloquinoline derivatives 6a–d were tested for their antitumor effect; the test was done in vivo on mice-bearing solid tumors. The induction of solid tumor in Swiss female mice performed by inserting 0.2 mL of EAC cells (2 × 10^6 cell/mL) subcutaneously (SC) between thighs of the lower limb. Seven days after tumor induction, animals were divided into 6 groups (n = 10), five groups were injected subcutaneously with 100 mg/kg of tested compounds daily for 5 consecutive days, the sixth group (positive control group) were given 0.3 DMSO/0.7 H2O. On day twelve, after carrying out EAC cells, mice were sacrificed, dissected, and change in tumor mass was evaluated by measuring the developed tumor mass volume using the formula [45, 46]:Tumor volume (mm^3) = 0.52 × length × (width)^2.(1)

[4] = test system: EAC cells; assay: Flow cytometric analysis of cell cycle distribution of EAC cells from treated mice; assay type: in vivo; conditions: EAC bearing mice, 100 mg/kg for 5 days; for Apoptotic Cells (sub-G1) / Non-Apoptotic Cells G0/G1 / Non-Apoptotic Cells G2/M / Non-Apoptotic Cells S: percentage of cells
From the text: Flow cytometry is a technique that gives a clue to the mechanism by which cytotoxic agents affect the cell cycle by sorting and analyzing cells based on their content of DNA. Flow cytometry was used to further evaluate the effects of the indoloquinoline compounds modes-of-action to the cellular level, and we extended our studies on the cell cycle effects. To know whether cell cycle changes were aligned with the inhibition of cell growth, the cell cycle phase distribution was examined via flow cytometry. The cell cycle was analyzed in EAC-bearing mice treated with indoloquinoline analogs 6a, 6b, 6c and 6d (at a dose of 100 mg/kg for 5 constitutive days).
Flow cytometry was used to calculate the percentage of cells in each phase of the cell cycle in both positive control (exposed to 0.3% DMSO) and treated cells, results illustrated in (Table 10 and Figure 2). The influence of indoloquinoline derivatives on EAC cells indicated noticeable cell cycle specificity. In comparison with the positive control group, an appreciable change in the cell cycle occurred in giving the studied compounds. The sub-G1 population indicated apoptotic-associated chromatin degradation.
Fresh tumor tissue specimens from treated and untreated groups were transported to our laboratory in isotonic saline. The specimens were prepared following these steps: • The material was washed with isotone tris EDTA buffer. Then, the cell suspension was centrifuged at 1800 rpm for 10 min; the supernatant was then separated; • The cell is then fixed in ice-cold 96–100% ethanol (BDH) in approximately 1 mL for each sample; • Two milliliters of phosphate buffer solution (PBS) were used to wash the sample, which was recentrifuged at 1500 rpm for 5 min then the supernatant was thrown away; • Granules of the Tumor cells were put back into suspension using 200–500 µL of PBS. Into polystyrene tube, 100 µL of the suspension was transferred and then stained with 1.5 mL of propidium iodide. The tube is kept at 4 °C in a dark place for one hour; • The sample was run in the flow cytometer within 30 min after the addition of propidium iodide.
The flow cytometer was carried out with FACS caliber flow cytometer (Becton Dickinson, Sunnyvale, CA, USA) equipped with a compact air cocked low-power 15 m watt argon ion laser beam (488 nm). The average number of evaluated nuclei per specimen 20,000, and the number of nuclei scanned was 120 per second. DNA histogram derived from flow cytometry was obtained with a computer program for Dean and Jett’s mathematical analysis. Data analysis was conducted using DNA analysis program MPDFIT (Verity Software House, Inc. Box 247, Topsham, ME 04086 USA, version: 2.0, power Mac with 131,072 KB Registration No.: 42000960827-16193213 Date made: 16 September 1996). This software calculated the CV around the G0/G1 peak and the percentage of cells in each phase (G0/G1, S and G2/M) of the DNA cell cycle for each sample.

[5] = test system: splenic lymphocytes of normal mice; assay: Splenic lymphocyte count in normal mice; assay type: in vivo, Swiss female albino mice; conditions: 100 mg/kg SC for 5 days
Procedure: The difference in the number of splenic lymphocytes between the study groups, including groups given indoloquinoline derivatives, control group, and groups with a tumor, were evaluated. Normal mice administered indoloquinoline derivatives at a dose of 100 mg/kg for 5 constitutive days subcutaneously reported statistical similarities with the untreated normal mice group regarding the count of splenic lymphocytes (Table 6).
as §1, §2

Molecule	Splenic Lymphocyte Number [1]	increase in lymphocytic count [1] [%]	CAT [2] [KU/mg Tissue/s]	Lipid Peroxidation [2] [nmol MDA/g Tissue]	SOD [2] [U/g Tissue]	reduction percentage in tumor volume [3] [%]	increase of G2/M fraction relative to positive control [4] [%]	increase of sub-G1 group as compared to control [4] [%]	reduction of G0/G1 fraction relative to positive control [4]	reduction of S-phase fraction relative to positive control [4]	Apoptotic Cells (sub-G1) [4]	Non-Apoptotic Cells G0/G1 [4]	Non-Apoptotic Cells G2/M [4]	Non-Apoptotic Cells S [4]	Splenic Lymphocyte Number [5]	increase of G0/G1 cell population relative to positive control [4] [%]	increase of cells in S-phase relative to positive control [4] [%]	reduction of G2/M fraction relative to positive control [4] [%]
5-Methyl-N-(4-methylpiperazin-1-yl)-5H-indolo[2,3-b] Quinolin-11-amine [Compound 6d]	17.0 ± 0.61 * 10^6/mL	359.5	6.1 ± 0.20	248.69 ± 5.5	137.9 ± 3.9	94.90	263.3	975	46%	56.6%	16.88 ± 0.6	41.30 ± 0.31	55.26 ± 0.06	3.44 ± 0.27	12.8 ± 0.04 10^6/mL			
Cn1c2nc3ccccc3c-2c(NCCc2c[nH]c3ccccc23)c2ccccc21 [Compound 6b, N-(2-(1H-Indol-3-yl)ethyl)-5-methyl-5H-indolo[2,3-b] Quinolin-11-amine]	14.8 ± 1.22 * 10^6/mL	300	5.7 ± 0.31	247.96 ± 6.3	140.2 ± 1.9	87.37	26.2	1452		about 70.3%	24.36 ± 0.01	78.44 ± 0.04	19.21 ± 0.09	2.35 ± 0.13	12.97 ± 0.65 10^6/mL	2		
5(5-Methyl-5H-indolo[2,3-b] quinolin-11-ylamino) Pyrimidine-2,4(1H,3H)-dione [Compound 6c]	17.0 ± 0.58 * 10^6/mL	359.5	6.2 ± 0.30	251.68 ± 11.9	138.6 ± 6.0	93.29	~269.5	683	about 95.7%		12.30 ± 0.15	3.30 ± 0.15	56.20 ± 0.1	40.50 ± 2.41	13.29 ± 1.12 10^6/mL		~411.3	
Cn1c2nc3ccccc3c-2c(Nc2ccc(Br)cc2F)c2ccccc21 [Compound 6a, N-(4-Bromo-2-fluorophenyl)-5-methyl-5H-indolo[2,3-b] Quinolin-11-amine]	20.0 ± 0.73 * 10^6/mL	440.5	6.5 ± 0.39	252.1 ± 7.2	139.4 ± 2.9	90.58		106		about 35.3%	3.23 ± 0.01	90.27 ± 6.35	4.61 ± 0.6	5.12 ± 0.36	13.3 ± 1.08 10^6/mL	17.4		69.7
